Some test systems named below: MDA-MB-231 breast; UACC-62 melanoma; HS 578T breast; RPMI-8226 leukemia; HL-60(TB) leukemia; TK-10 renal; HOP-62 NSCLC; SN12C renal; SF-539 CNS; MALME-3M melanoma.
What all share (assay): NCI anticancer screen, dose series, 48 h

Consider 6 compounds from PubChem BioAssay (NCI).

SMILES strings stand for the structures.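 Results reflect a 48-hour exposure of cells in 96-well plates to compound at five concentrations. The concentration for 50% growth inhibition is given as GI50. The concentration for full growth arrest is given as TGI.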

Take `CC(=O)OC1CC(C)c2c1ncnc2N1CCN(C(=O)OC(C)(C)C)CC1` (stereo not given): the GI50 in the assay with MDA-MB-231 breast was 42.8 µM; with UACC-62 melanoma it was 46.4 µM; in the assay with HS 578T breast, 83.5 µM; in the assay on RPMI-8226 leukemia, 35.1 µM; in the assay with HL-60(TB) leukemia, 25.9 µM; in the assay with TK-10 renal it was 70.8 µM. The GI50 in the assay on HOP-62 NSCLC was 45.4 µM; in the assay with SN12C renal, 79.4 µM; in the assay with SF-539 CNS, 30.8 µM; in the assay on MALME-3M melanoma, 35.5 µM. Also, the TGI was more than 100 µM with MDA-MB-231 breast; more than 100 µM in the assay with UACC-62 melanoma; more than 100 µM in the assay with HS 578T breast; more than 100 µM in the assay on RPMI-8226 leukemia; 83.6 µM in the assay on HL-60(TB) leukemia; more than 100 µM in the assay on TK-10 renal. The TGI in the assay with HOP-62 NSCLC, in the assay with SN12C renal, in the assay with SF-539 CNS and with MALME-3M melanoma was more than 100 µM in each case.

For the compound `COc1cccc2c1C(=O)c1c(O)c3c(c(O)c1C2=O)C[C@@](O)(C(=O)COC(=O)c1cccnc1)C[C@@H]3OC1CC(N)C(O)C(C)O1` (stereo not given in full), the GI50 was 0.327 µM in the assay on MDA-MB-231 breast; 0.103 µM with UACC-62 melanoma; 0.175 µM in the assay with HS 578T breast; 0.114 µM in the assay with RPMI-8226 leukemia; 0.146 µM in the assay with HL-60(TB) leukemia; 0.149 µM in the assay with TK-10 renal. Besides, the GI50 is 0.124 µM in the assay with HOP-62 NSCLC, 0.083 µM in the assay on SN12C renal, 0.0744 µM in the assay with SF-539 CNS and 0.115 µM in the assay on MALME-3M melanoma. Moreover, the TGI in the assay with MDA-MB-231 breast was found to be 1.96 µM; with UACC-62 melanoma, 0.268 µM; with HS 578T breast it was 0.984 µM; in the assay with RPMI-8226 leukemia, 0.714 µM; in the assay with HL-60(TB) leukemia, 1.64 µM; in the assay with TK-10 renal it was 0.845 µM. Further, the TGI was 1.28 µM in the assay on HOP-62 NSCLC, 3.68 µM in the assay on SN12C renal, 0.673 µM with SF-539 CNS and 0.353 µM in the assay with MALME-3M melanoma.

For the compound `COc1ccc(S(=O)(=O)N2CCCCC2)cc1NC(=O)c1[nH]c(C)c2c1CCCCC2=O`, the GI50 was 0.718 µM in the assay with MDA-MB-231 breast; 0.356 µM in the assay with UACC-62 melanoma; 1.45 µM with HS 578T breast; 1.46 µM in the assay on RPMI-8226 leukemia; 0.444 µM in the assay on HL-60(TB) leukemia; 0.658 µM with TK-10 renal. In addition, the GI50 with HOP-62 NSCLC is 0.904 µM; in the assay on SN12C renal, 3.16 µM; with SF-539 CNS, 2.31 µM; in the assay on MALME-3M melanoma, 1.76 µM. Also, the TGI with MDA-MB-231 breast is more than 100 µM; in the assay on UACC-62 melanoma, 7.74 µM; in the assay on HS 578T breast, more than 100 µM; in the assay with RPMI-8226 leukemia, 32.4 µM; in the assay with HL-60(TB) leukemia it was 6.86 µM; with TK-10 renal, 38.1 µM. The TGI with HOP-62 NSCLC is more than 100 µM; in the assay with SN12C renal it was more than 100 µM; in the assay on SF-539 CNS it was more than 100 µM; in the assay on MALME-3M melanoma, 93.8 µM.

For the compound `C=C(C)[C@@H]1CC[C@]2(c3ncc(C)o3)CC[C@]3(C)[C@H](CC[C@@H]4[C@@](C)(CCC#N)[C@H](C(=C)C)CC[C@]43C)[C@@H]12`, the GI50 was 2.53 µM with MDA-MB-231 breast; 2.38 µM in the assay on UACC-62 melanoma; 4.3 µM in the assay on HS 578T breast; 2.44 µM in the assay with RPMI-8226 leukemia; 2.49 µM with HL-60(TB) leukemia; 14 µM in the assay on TK-10 renal. Besides, the GI50 in the assay on HOP-62 NSCLC was 6.99 µM; with SN12C renal it was 3.16 µM; in the assay on SF-539 CNS, 9.05 µM; with MALME-3M melanoma, 2.65 µM. Moreover, the TGI in the assay with MDA-MB-231 breast is 6.41 µM; in the assay with UACC-62 melanoma it was 6.96 µM; in the assay with HS 578T breast it was 19.4 µM; in the assay with RPMI-8226 leukemia, 6.9 µM; in the assay with HL-60(TB) leukemia it was 6.83 µM; with TK-10 renal, 28.2 µM. The TGI in the assay on HOP-62 NSCLC worked out at 21.6 µM; in the assay on SN12C renal, 12.1 µM; in the assay on SF-539 CNS, 21.7 µM; with MALME-3M melanoma it was 9.75 µM.

Regarding `Cc1cc(Cl)ccc1OCC(=O)Oc1c(Cl)c(Cl)c(Cl)c(Cl)c1Cl`, the TGI is 38.1 µM with MDA-MB-231 breast; 46.6 µM in the assay on UACC-62 melanoma; 66.3 µM with HS 578T breast; 61.7 µM in the assay on RPMI-8226 leukemia; more than 100 µM in the assay with HL-60(TB) leukemia; 69.1 µM in the assay with TK-10 renal. In addition, the TGI with HOP-62 NSCLC is 47.2 µM; with SN12C renal it was 62.9 µM; in the assay on SF-539 CNS, more than 100 µM; in the assay with MALME-3M melanoma, 45.3 µM.

`CCCCCCCCOC(=O)c1cc(O)c(O)c(O)c1`: the GI50 in the assay with MDA-MB-231 breast was 12.1 µM; with UACC-62 melanoma it was 3.27 µM; with HS 578T breast it was 2.4 µM; in the assay with RPMI-8226 leukemia, 0.511 µM; in the assay with HL-60(TB) leukemia, 0.486 µM; in the assay on TK-10 renal it was 3.77 µM. Further, the GI50 in the assay on HOP-62 NSCLC was 4.77 µM; with SN12C renal it was 3.21 µM; with SF-539 CNS, 2.52 µM; in the assay with MALME-3M melanoma, 1.74 µM. For the same compound, the TGI in the assay with MDA-MB-231 breast was 63.1 µM; in the assay on UACC-62 melanoma, 15.3 µM; in the assay on HS 578T breast, 22.2 µM; in the assay with RPMI-8226 leukemia, more than 100 µM; in the assay on HL-60(TB) leukemia, 5.02 µM; in the assay on TK-10 renal, more than 62.6 µM. Moreover, the TGI in the assay with HOP-62 NSCLC came out at 20 µM; with SN12C renal it was 31.7 µM; with SF-539 CNS it was 18.2 µM; in the assay on MALME-3M melanoma, 9.25 µM.
